# “And” between values parts separate entries of the source, which are not always exact repeats. Equal entries are not always repeated.
# Tests used:
# Cx43 [1] = target: T1, Cx43 (Homo sapiens, UniProt P17302); test: I-YFP GJIC assay, LN215-Cx43 cells; format: cell-based; conditions: 10 min treatment, best fit value ± standard error; read-out: IC50 for inhibition of Cx43-GJIC
# T1 construct: expressed in transfected cells; host or cells: GJA1-null LN215 human glioma cells, lentiviral transduction (pLVX-CIBla-Cx43)
# Experimental: (§1) GJA1-null LN215 cells were plated on a 24-well plate at 30% confluency, cultivated for 24 h, and transduced with 200 μL of conditioned medium containing lentivirus mixed with an equal volume of fresh growth medium for 15 h. The growth medium was refreshed followed by incubation for a further 72 h before selection with 2 μg/mL puromycin for one week.
# (§2) The I-YFP GJIC assay was conducted as previously reported ([Lee et al., 2015], [2016]). The scheme of the assay is as follows: donor cells express SLC26A4 as an iodide transporter to allow iodide to the influx and donate iodide to acceptor cells through GJs; the acceptor cells express YFP^QL as an iodide sensor, for which the fluorescence is rapidly and sensitively quenched by iodide transferred from donor cells. […] A POLARstar microplate reader (BMG Labtech, Ortenberg, Germany) equipped with an automated injector was utilized in the kinetic mode to read the YFP fluorescence of a well every 0.4 s for 10 s. […] The % YFP quenching and % GJIC activity were calculated from a previously reported formula ([Lee et al., 2016]). […]
# (§3) FIGURE 10 IC50 values of D-GA and CBX inhibition of GJs composed of Cx43, Cx40, or Cx30. […] The percentage of GJIC inhibition was calculated and plotted against the log [compound] […] The IC50 values were calculated using GraphPad Prism 5.
# Cx40 = target: T2, Cx40 (Homo sapiens, UniProt P36382); test: I-YFP GJIC assay, LN215-Cx40 cells; format: cell-based; conditions: 10 min treatment, best fit value ± standard error; read-out: IC50 for inhibition of Cx40-GJIC
# T2 construct: expressed in transfected cells; host or cells: GJA1-null LN215 human glioma cells, lentiviral transduction (pLVX-EIBla-Cx40)
# Experimental: as §1, §2, §3
# Cx30 = target: T3, Cx30 (Homo sapiens, UniProt O95452); test: I-YFP GJIC assay, LN215-Cx30 cells; format: cell-based; conditions: 10 min treatment, best fit value ± standard error; read-out: IC50 for inhibition of Cx30-GJIC
# T3 construct: expressed in transfected cells; host or cells: GJA1-null LN215 human glioma cells, lentiviral transduction (pLVX-CIBla-Cx30)
# Experimental: as §1, §2, §3
# [2] = tested on: GJIC in LN215 glioma cells; test: I-YFP GJIC assay in LN215 cells; format: cell-based, human; conditions: for Inhibition of GJIC (in words): treated 10 min before assay, LN215 glioma cells
# Experimental: The I-YFP GJIC assay was conducted as previously reported ([Lee et al., 2015], [2016]). The scheme of the assay is as follows: donor cells express SLC26A4 as an iodide transporter to allow iodide to the influx and donate iodide to acceptor cells through GJs; the acceptor cells express YFP^QL as an iodide sensor, for which the fluorescence is rapidly and sensitively quenched by iodide transferred from donor cells. A 2:1 mixture of the donor (LN215-I) and acceptor (LN215-YFP) cells were plated on 96-well plates at a density of 20,000 cells/well and grown for 24 h. After the medium was removed, the cells were treated with 100 μL of C-solution (10 mM HEPES, pH 7.4, 140 mM NaCl, 10 mM glucose, 5 mM KCl, 1 mM MgCl2, 1 mM CaCl2) containing vehicle or chemicals, as indicated. A POLARstar microplate reader (BMG Labtech, Ortenberg, Germany) equipped with an automated injector was utilized in the kinetic mode to read the YFP fluorescence of a well every 0.4 s for 10 s. An equal volume of I-solution, with the same composition as C-solution, except for the substitution of NaCl with NaI, was injected into the well 1 s after each recording was started. The % YFP quenching and % GJIC activity were calculated from a previously reported formula ([Lee et al., 2016]).
# FIGURE 2 Inhibition of GJIC by GA, D-GA, and T-GA. I-YFP GJIC assay (see Materials and Methods) was conducted using LN215-I and LN215-YFP cells. The vehicle, GA (A), D-GA (B), or T-GA (C) was diluted in C-solution and applied to cells at the concentrations indicated above for 10 min before the GJIC assay. The mean % of GJIC activity ± SD of three independent experiments is presented as bar graphs.
# LN215 cells = test: Measurement of DCFH oxidation (ROS); format: cell-based, human; conditions: D-GA 20 μM 10 min, H2O2 30 min
# Experimental: looseness1 LN215 cells were grown to confluency on 96-well plates, washed three times with C-solution, and treated with 100 μL C-solution containing 10 μM 2′–7′-dichlorodihydrofluorescein diacetate (DCFH-DA, Sigma-Aldrich) for 1 h; subsequently, the DCF fluorescence was measured. Chemical treatment was conducted during the DCFH-DA loading period. The DCF fluorescence value, which reflects cellular oxidative stress, was measured using a POLARstar microplate reader using excitation and emission wavelengths of 495 and 520, respectively.
# FIGURE 7 No ROS generation results from D-GA treatment in LN215 cells. LN215 cells were plated in 96-well plates and grown to full confluency. After washing with C-solution, the cells were loaded with 10 μM DCFH-DA diluted in C-solution for 1 h before fluorometry. H2O2 or D-GA was added after 30 min or 10 min before the measurement, respectively. The data are the mean ± SD (n = 3). ^∗p < 0.05 (Student’s t-test).
# Cx43 [3] = format: cell-based, human; conditions: LN215-Cx43 cells
# Experimental: To assess the cellular level and S368 phosphorylation status of Cx43 on cell surfaces and in whole lysates, LN215-Cx43 cells on 100 mm culture plates were biotinylated using EZ-Link^TM Sulfo-NHS-SS-Biotin (ThermoFisher Scientific, Cat. No. 21331) according to the manufacturer’s instructions followed by lysis with PBS containing 1% Triton X-100, 1x protease inhibitor cocktail (Roche), and 1x phosphatase inhibitor cocktail (Pierce). Protein concentration was determined using a BCA assay. To collect surface proteins, 500 μg of protein was bound to 20 μL of NeutrAvidin^TM Agarose (Pierce) followed by elution with 2x Laemmli sample buffer. The surface samples and 20 μg of whole lysates were analyzed using immunoblotting as previously described ([Lee et al., 2016]). To confirm the knockout of GJA1, whole lysates were prepared without surface biotinylation. […] The protein band densities were measured using ImageJ software.
# FIGURE 5 Effect of D-GA treatment on surface expression and S368 phosphorylation of Cx43. […] The images before cropping are also presented in Supplementary Figures 1A–E. The relative phospho-S368 Cx43 band intensity, divided by the total Cx43 band intensity, is reflective of Cx43 S368-phosphorylation and was calculated and presented as bar graphs (B). […]
# SLC26A4 = target: T4, SLC26A4 (Homo sapiens, UniProt O43511); test: SLC26A4 inhibition (Supplementary Figure 4); format: cell-based
# T4 construct: expressed in transfected cells
# T4 sequence (O43511 1-780): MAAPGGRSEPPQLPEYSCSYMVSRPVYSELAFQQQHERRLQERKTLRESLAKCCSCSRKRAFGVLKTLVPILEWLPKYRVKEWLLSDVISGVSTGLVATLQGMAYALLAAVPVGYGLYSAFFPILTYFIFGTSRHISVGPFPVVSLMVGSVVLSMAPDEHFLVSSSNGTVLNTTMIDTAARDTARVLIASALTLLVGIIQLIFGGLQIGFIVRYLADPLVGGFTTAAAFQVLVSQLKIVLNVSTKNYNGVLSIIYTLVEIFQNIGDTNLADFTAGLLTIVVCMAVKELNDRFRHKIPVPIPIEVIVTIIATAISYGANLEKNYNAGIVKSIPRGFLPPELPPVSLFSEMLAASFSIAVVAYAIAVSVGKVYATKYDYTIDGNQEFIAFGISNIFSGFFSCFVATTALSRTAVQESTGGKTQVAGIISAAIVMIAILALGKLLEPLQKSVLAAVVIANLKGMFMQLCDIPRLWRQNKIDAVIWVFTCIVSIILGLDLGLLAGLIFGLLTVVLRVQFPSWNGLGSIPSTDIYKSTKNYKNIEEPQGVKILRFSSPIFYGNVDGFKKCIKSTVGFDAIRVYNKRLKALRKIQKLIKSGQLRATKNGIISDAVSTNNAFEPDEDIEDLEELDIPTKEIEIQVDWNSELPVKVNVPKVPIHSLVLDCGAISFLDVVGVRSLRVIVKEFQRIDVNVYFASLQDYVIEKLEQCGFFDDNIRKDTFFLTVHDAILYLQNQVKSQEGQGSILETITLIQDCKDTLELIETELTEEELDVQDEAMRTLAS
# T1 sequence (P17302 2-382 limits assumed): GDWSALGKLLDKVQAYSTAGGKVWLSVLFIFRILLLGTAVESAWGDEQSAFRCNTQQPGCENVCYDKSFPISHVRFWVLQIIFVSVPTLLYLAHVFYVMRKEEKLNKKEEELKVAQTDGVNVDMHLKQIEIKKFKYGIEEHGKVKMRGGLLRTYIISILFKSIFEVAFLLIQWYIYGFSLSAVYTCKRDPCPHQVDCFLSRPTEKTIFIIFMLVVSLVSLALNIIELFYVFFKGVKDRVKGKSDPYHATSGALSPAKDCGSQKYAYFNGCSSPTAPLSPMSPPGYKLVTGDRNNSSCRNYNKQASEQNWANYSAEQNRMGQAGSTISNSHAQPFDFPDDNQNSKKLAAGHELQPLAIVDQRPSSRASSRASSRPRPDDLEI
# T3 sequence (O95452 whole entry): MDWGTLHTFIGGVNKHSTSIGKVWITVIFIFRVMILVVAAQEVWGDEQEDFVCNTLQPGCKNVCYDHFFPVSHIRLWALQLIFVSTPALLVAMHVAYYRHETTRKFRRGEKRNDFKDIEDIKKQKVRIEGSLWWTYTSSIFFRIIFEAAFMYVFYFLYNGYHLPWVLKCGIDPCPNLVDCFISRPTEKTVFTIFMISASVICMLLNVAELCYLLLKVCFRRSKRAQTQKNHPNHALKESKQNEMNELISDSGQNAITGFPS
# T2 sequence (P36382 whole entry): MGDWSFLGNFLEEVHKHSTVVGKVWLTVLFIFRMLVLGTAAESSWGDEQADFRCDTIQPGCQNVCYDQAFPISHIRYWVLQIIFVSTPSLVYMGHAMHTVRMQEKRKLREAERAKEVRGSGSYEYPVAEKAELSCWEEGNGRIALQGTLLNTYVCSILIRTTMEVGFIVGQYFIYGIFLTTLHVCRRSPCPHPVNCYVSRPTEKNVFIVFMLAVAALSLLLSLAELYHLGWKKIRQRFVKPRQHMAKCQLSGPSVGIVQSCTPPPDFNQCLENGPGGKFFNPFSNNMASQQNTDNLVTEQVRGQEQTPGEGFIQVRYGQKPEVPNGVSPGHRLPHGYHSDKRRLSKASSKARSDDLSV
smiles,measurement,setting,value
"CC1(C)[C@@H](OC(=O)CCC(=O)O)CC[C@]2(C)[C@H]3C(=O)C=C4[C@@H]5C[C@@](C)(C(=O)O)CC[C@]5(C)CC[C@@]4(C)[C@]3(C)CC[C@@H]12 [CBX, carbenoxolone, reference compound]",IC50,Cx43 [1],5.6 ± 1.1 µM
same,IC50,Cx40,105 µM
same,IC50,Cx30,748.2 ± 1.3 µM
"CC(C)=CCCC1(C)C=Cc2c(O)c3c(c(CC=C(C)C)c2O1)OC12C(CC4CC1C(C)(C)OC2(CC=C(C)C(=O)O)C4O)C3=O (stereo not drawn) [T-GA, tetrahydrogambogic acid]",Inhibition of GJIC (in words),[2],inhibited by these compounds in a dose-dependent manner
"CC(=O)OCOC(=O)CN(CC(=O)OCOC(C)=O)c1ccccc1OCCOc1ccccc1N(CC(=O)OCOC(C)=O)CC(=O)OCOC(C)=O [BAPTA-AM, reference compound]",Effect of pre-treatment on GJIC activity,"[2]; 5 μM BAPTA-AM 30 min, control or 20 μM D-GA-treated LN215 cells",did not change the GJIC activity
"OO [H2O2, reference compound]",DCF fluorescence (cellular ROS production),LN215 cells,dose-dependent increase
"CC(C)=CCCC1(C)C=Cc2c(O)c3c(c(CC=C(C)C)c2O1)OC12C(=CC4CC1C(C)(C)OC2(C/C=C(/C)C(=O)O)C4O)C3=O [D-GA, dihydrogambogic acid]",% GJIC activity,"[2]; 20 μM for 10 min, LN215-I and LN215-YFP cells, mean ± SD",18.1% ± 15.7% and 17.6% ± 7.3%
same,% GJIC activity after washing,"[2]; 20 μM for 10 min, washed, further 20 min incubation in absence of compound",91.4% ± 2.5%
same,Inhibition of GJIC (in words),[2],inhibited by these compounds in a dose-dependent manner
same,IC50,Cx43 [1],13.1 ± 1.1 µM
same,IC50,Cx40,5.1 µM
same,IC50,Cx30,81.1 ± 1.1 µM
same,S368 phosphorylation of surface Cx43 vs vehicle,"Cx43 [3]; 10 min, 20 μM D-GA or 100 ng/mL PMA + 50 ng/mL EGF",did not increase S368 phosphorylation
same,Cx43 level on cell surfaces,Cx43 [3]; 20 μM D-GA 10 min or 1 μg/mL BFA + 10 μg/mL CHX 6 h,increased threefold
same,DCF fluorescence (cellular ROS production),LN215 cells,did not increase DCF fluorescence
"CC(C)=CCC[C@]1(C)C=Cc2c(O)c3c(c(CC=C(C)C)c2O1)O[C@]12C(=C[C@@H]4C[C@H]1C(C)(C)O[C@@]2(C/C=C(/C)C(=O)O)C4=O)C3=O [GA, Gambogic acid]",Inhibition of GJIC (in words),[2],inhibited by these compounds in a dose-dependent manner
same,Inhibition of SLC26A4,SLC26A4,did not inhibit SLC26A4
"Cc1[nH]nc(-c2cc(S(=O)(=O)NC3CCCc4ccccc43)c(C)s2)c1C (stereo not drawn) [PDSinh-C01, reference compound]",Inhibition of SLC26A4,SLC26A4,potently inhibited
